According to US12247063B2, “Cell surface modification by coating with peptide amphiphiles (PAs)” (Northwestern University, priority 2020, dated 2025):
Peptide text beside a SMILES is read from it.

Assays:
[1] = system: primary murine splenocytes; test: Coating of murine primary splenocytes (confocal, flow cytometry); type: cell-based
Text: (§1) To further investigate the coating efficiency of the targeting PAs, murine primary splenocytes were isolated, coated with TAMRA-labeled ICAM-1 targeting PA, and visualized using confocal microscopy. […] Flow cytometry was subsequently performed to compare coating efficiency of ICAM-1 and VCAM-1 targeting PAs. […] This can be visualized through both light microscopy (top) and processed images highlighting bound cell edges (bottom).

[2] = Zeta potential measurement of PA nanofibers; type: physicochemical; conditions: 0.1 mM PA in DPBS
Experimental: The PA solutions were prepared with the final concentration of 0.1 mM in DPBS. Each solution was transferred to folded capillary zeta cells (Malvern). The zeta potential was measured using zetasizer Nano ZSP (Malvern).

[3] = biological target: T1, Recombinant Human VCAM-1/CD106 Fc chimera protein (Homo sapiens, UniProt P19320); test: Biolayer interferometry (BLI) binding to VCAM-1 protein; conditions: all concentrations of PA investigated (0.1 mM-100 nM)
T1 construct: Fc (immunoglobulin Fc fusion partner); His tag (inferred from capture on anti-penta-His sensor); purchased R&D Systems
T1 sequence (P19320 with tags, fused parts or gaps limits assumed): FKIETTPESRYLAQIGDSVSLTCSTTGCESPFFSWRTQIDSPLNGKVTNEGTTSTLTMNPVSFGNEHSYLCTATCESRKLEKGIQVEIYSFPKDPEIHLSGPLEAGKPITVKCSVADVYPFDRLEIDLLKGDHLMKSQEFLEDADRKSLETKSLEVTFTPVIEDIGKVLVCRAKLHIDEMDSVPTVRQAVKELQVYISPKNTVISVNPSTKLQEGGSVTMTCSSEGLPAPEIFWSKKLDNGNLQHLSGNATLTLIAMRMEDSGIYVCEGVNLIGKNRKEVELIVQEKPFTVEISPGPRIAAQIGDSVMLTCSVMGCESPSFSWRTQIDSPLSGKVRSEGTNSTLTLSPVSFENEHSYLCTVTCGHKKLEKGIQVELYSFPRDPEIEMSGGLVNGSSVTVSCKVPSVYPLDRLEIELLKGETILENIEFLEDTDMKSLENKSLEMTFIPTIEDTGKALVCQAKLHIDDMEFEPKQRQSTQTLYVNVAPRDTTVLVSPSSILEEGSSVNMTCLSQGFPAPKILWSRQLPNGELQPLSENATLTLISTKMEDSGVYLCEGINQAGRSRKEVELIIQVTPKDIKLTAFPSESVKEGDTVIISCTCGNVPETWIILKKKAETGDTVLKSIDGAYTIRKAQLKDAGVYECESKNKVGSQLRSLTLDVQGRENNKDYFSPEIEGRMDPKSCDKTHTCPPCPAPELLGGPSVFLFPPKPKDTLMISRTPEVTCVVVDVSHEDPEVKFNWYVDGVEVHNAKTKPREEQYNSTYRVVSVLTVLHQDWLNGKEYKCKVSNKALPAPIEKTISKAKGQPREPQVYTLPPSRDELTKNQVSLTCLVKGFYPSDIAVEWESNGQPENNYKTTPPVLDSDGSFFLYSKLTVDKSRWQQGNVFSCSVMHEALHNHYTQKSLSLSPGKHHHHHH
Experimental: The PA solution of each PA were prepared with the concentration 1 mM after annealing and serial dilutions were made for 100, 10, 1 μM, 100, 10, 1 nM solutions using DPBS. Recombinant Human VCAM-1/CD106 Fc chimera protein (R&D Systems) was purchased and the stock solution of 100 μg/mL was prepared according to the manufacturer's instructions and stored in −80° C. until use. For measurement, the protein solution was diluted to […]. The binding responses were measured and recorded by BLItz Bio-Layer Interferometer in Keck Biophysics Facility, Chicago campus, Northwestern University. The biosensor utilized for this study was Anti-Penta-HIS Biosensors (ForteBio). The measuring protocol is as follows: 30 seconds of initial baseline measurement, 600 seconds of protein (VCAM-1) immobilization, 30 seconds of base line measurement, 300 seconds of association measurement, 300 seconds of dissociation measurement. The dissociation constant was calculated by BLItz Pro Software.

[4] = biological target: ICAM surface (Homo sapiens, UniProt P05362); test: Microfluidic flow retention of coated lymphocytes on protein surface; type: cell-based
ICAM surface, sequence (P05362 28-532): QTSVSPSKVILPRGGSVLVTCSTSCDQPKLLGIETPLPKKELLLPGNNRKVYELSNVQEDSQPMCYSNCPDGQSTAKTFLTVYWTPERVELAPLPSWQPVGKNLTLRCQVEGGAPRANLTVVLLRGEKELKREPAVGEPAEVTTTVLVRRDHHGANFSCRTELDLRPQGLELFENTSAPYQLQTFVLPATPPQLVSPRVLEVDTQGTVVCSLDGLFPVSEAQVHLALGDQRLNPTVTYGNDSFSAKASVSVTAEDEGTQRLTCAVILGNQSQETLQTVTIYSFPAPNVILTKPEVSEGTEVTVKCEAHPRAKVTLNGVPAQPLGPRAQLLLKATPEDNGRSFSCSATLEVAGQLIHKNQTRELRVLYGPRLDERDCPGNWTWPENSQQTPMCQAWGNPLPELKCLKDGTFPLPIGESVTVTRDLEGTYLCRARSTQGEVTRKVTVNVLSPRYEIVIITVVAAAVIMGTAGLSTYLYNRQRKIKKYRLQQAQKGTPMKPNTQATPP
Text: as §1

[5] = Viability of PA-coated hTreg cells (Calcein AM, flow cytometry); type: cell-based, human; conditions: human, human regulatory T (hTreg) cells
Experimental: (§2) The 15 μL of concentrated cell dispersion in DPBS was mixed with 10 μL of PA solution in 500 μL-tube at RT. Unless otherwise noted, the incubation time for backbone PAs and VCAMb PA is 5 minutes and 1 minute, respectively. After incubation the cell and PA mixture was transferred to a 15 mL-conical tube with 2 mL of DPBS and centrifuged down by 1,000 g for 10 minutes. The supernatant was aspirated leaving 300 μL of buffers with the cell pellet. For backbone PA, the washing step was repeated for 3 times. For further characterizations, the pellets were dissociated in 100 μL DPBS.
(§3) All cells were stained by Calcein AM (Life Technologies) and Hoechst 33342 (Life Technologies) according to manufacturer's instructions for imaging and the flow cytometry analysis. For confocal fluorescence imaging and imaging with z-stacks, Nikon X1 Spinning Disk Confocal microscope in Center for Advanced Microscopy/Nikon Imaging Center (CAM), Northwestern University was utilized. For 3D reconstruction of z-stacks of confocal images, IMARIS software (Oxford Instruments) in the same center was utilized.
(§4) In order to quantify the coating efficiency, mean fluorescence intensity (MFI) and the viability of the cells, LSR Fortessa and Diva software (BD Biosciences) was utilized. The coating efficiency was obtained from calculating the number of TAMRA+ cells divided by the total number of cells (Hoechst+ cells). The MFI value was obtained from living cells. The viability was calculated by dividing the number of Calcein-AM+ (living cells) by the total number of cells.

[6] = system: human regulatory T (hTreg) cells; test: PA nanofiber coating of human regulatory T cells (flow cytometry, confocal); type: cell-based
Experimental: To isolate the Treg cells, the apheresis product collected from peripheral blood was suspended in a de-clumping buffer (Miltenyi PBS/EDTA Buffer, 25% Human Serum Albumin (HSA), MgCl2, and Pulmozyme). Using CliniMACS Plus and GMP grade reagents, the CD8 and CD19 depletion and CD25+ enrichment was carried out (Miltenyi). The isolated Tregs were stimulated/expanded with Exp-Act® beads at a 4:1 (bead:cell) ratio in a TexMACS medium supplemented with 5% heat-inactivated AB serum, 1,000 IU/ml IL-2, 100 ng/ml Sirolimus (SRL: Rapamycin; Sigma Aldrich) and 1 μg/ml TGF-β (Miltenyi Biotec). The cells were then restimulated with Exp-Act® beads, at a ratio of 1:1 beads on Day 7 and 14. Further, the expanded Tregs were harvested on Day 21 and Exp-Act beads were removed on the CliniMACS Plus instrument for the nanofiber coating experiment and evaluation. Peripheral blood samples were obtained under a protocol following written informed consent approved and supervised by a Northwestern University Institutional Review Board.
(§5) The cells for PA nanofiber coating should be prepared as a dispersion in buffer (DPBS; Invitrogen). The adherent cells such as 3T3 and C2C12 cells were dissociated using Trypsin (0.25%, Invitrogen). The cells were centrifuged down and washed using buffers to be prepared in DPBS (5×10^5 cells/15 μL/tube). Non-adherent cells such as CCRF-CEM cells or human regulatory T cells were simply washed by buffers to remove serum or other proteins which potentially interact with the PA molecules to get concentrated cell dispersion.
as §2
as §3, with “For 3D reconstruction of z-stacks of confocal images, IMARIS software (Oxford Instruments) in the same center was utilized.” left out
(§6) In order to quantify the coating efficiency, mean fluorescence intensity (MFI) and the viability of the cells, LSR Fortessa and Diva software (BD Biosciences) was utilized. […] The viability was calculated by dividing the number of Calcein-AM+ (living cells) by the total number of cells.

[7] = system: human regulatory T (hTreg) cells; test: Viability of PA-coated hTreg cells (Calcein AM, flow cytometry); type: cell-based; conditions: 500 μM coating solution
Experimental: as §2, §3, §4

[8] = system: CCRF-CEM cells; test: PA nanofiber coating of CCRF-CEM model cells (confocal microscopy, flow cytometry); type: cell-based; conditions: annealed nanofibers with 1 mol % TAMRA-PA
Experimental: as §5
The 15 μL of concentrated cell dispersion in DPBS was mixed with 10 μL of PA solution in 500 μL-tube at RT. […]
as §3, with “For 3D reconstruction of z-stacks of confocal images, IMARIS software (Oxford Instruments) in the same center was utilized.” left out
as §6

[9] = biological target: T2, VCAM-1 (Homo sapiens, UniProt P19320); conditions: free peptide, SPR, measured from another group; cited from earlier work
T2 sequence (P19320 25-739): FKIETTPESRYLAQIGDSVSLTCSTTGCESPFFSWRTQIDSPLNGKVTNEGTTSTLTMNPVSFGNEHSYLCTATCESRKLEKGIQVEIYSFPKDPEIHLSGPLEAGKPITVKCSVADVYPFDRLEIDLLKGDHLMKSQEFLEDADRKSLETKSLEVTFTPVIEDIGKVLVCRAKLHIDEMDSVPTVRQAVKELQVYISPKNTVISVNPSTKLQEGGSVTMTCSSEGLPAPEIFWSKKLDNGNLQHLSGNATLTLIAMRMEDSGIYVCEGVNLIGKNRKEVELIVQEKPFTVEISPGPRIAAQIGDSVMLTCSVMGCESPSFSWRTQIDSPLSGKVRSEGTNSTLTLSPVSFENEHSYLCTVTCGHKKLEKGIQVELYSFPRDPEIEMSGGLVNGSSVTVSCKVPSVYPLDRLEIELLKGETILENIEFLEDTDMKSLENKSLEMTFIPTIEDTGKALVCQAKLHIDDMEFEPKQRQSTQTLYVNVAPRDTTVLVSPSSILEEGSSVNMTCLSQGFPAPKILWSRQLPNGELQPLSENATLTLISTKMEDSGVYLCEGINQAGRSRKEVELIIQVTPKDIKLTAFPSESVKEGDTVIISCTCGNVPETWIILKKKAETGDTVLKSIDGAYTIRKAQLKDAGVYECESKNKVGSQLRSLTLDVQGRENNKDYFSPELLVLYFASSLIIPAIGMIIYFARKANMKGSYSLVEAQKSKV

Q: Which “difference in coating efficiency between VCAM-1 and ICAM-1 targeting PA” value [1] does the source give for `CCCCCCCCCCCCCCCC(=O)N[C@H](C(=O)N[C@H](C(=O)N[C@H](C(=O)N[C@@H](C)C(=O)N[C@@H](C)C(=O)N[C@@H](C)C(=O)N[C@@H](CCC(=O)O)C(=O)N[C@@H](CCC(=O)O)C(=O)N[C@@H](CCC(=O)O)C(=O)NCC(=O)N[C@@H](CO)C(=O)NCC(=O)N[C@H](C(=O)N[C@@H](Cc1c[nH]cn1)C(=O)N1CCC[C@H]1C(=O)N[C@@H](CCCCN)C(=O)N[C@@H](CCC(N)=O)C(=O)N[C@@H](Cc1c[nH]cn1)C(N)=O)C(C)C)C(C)C)C(C)C)C(C)C` [VCAMb PA, C16-V3A3E3GSGVHPKQH (SEQ ID NO: 14)] (HELM PEPTIDE1{[CCCCCCCCCCCCCCCC(=O)[*:2]].V.V.V.A.A.A.E.E.E.G.S.G.V.H.P.K.Q.H.[am]}$$$$V2.0) here?
A: little difference

Q: And the zeta potential [2]?
A: 21.4±3.703 mV

Q: What about the “association with VCAM-1 protein in BLI” value [3] of the same molecule?
A: clear association

Q: What about the “non-specific interactions of coated lymphocytes with off-target protein” value [4] of the same molecule?
A: minimal

Q: What about the viability at 1 min, 125 µM ([5]; 125 μM PA) of the same molecule?
A: 85.2 ± 5.3%

Q: And the viability at 1 min, 250 µM ([5]; 250 μM PA)?
A: 82.6 ± 7.45%

Q: What about the viability at 1 min, 500 µM ([5]; 500 μM PA) of the same molecule?
A: 82.53 ± 0.61%

Q: And the coating efficiency ([6]; PA in the range of 125-500 μM)?
A: ≥ 95%

Q: What about the coating efficiency ([6]; coated within 1 minute at room temperature) of the same molecule?
A: ≥ 94.5%

Q: And the “minimal concentration of stable coating” value ([6]; from coating efficiency and peak shifting)?
A: 125 µM

Q: For `CCCCCCCCCCCCCCCC(=O)N[C@H](C(=O)N[C@H](C(=O)N[C@H](C(=O)N[C@@H](C)C(=O)N[C@@H](C)C(=O)N[C@@H](C)C(=O)N[C@@H](CCC(=O)O)C(=O)N[C@@H](CCC(=O)O)C(=O)N[C@@H](CCC(=O)O)C(N)=O)C(C)C)C(C)C)C(C)C` [backbone PA, C16-V3A3E3 (SEQ ID NO: 5)] (HELM PEPTIDE1{[CCCCCCCCCCCCCCCC(=O)[*:2]].V.V.V.A.A.A.E.E.E.[am]}$$$$V2.0), which “viability of coated cells” value [7] is on record?
A: high viability

Q: What does the source list for “C16-V3A3E3GSGQHPHVK (SEQ ID NO: 17) (VVVAAAEEEGSGQHPHVK; HELM PEPTIDE1{[CCCCCCCCCCCCCCCC(=O)[*:2]].V.V.V.A.A.A.E.E.E.G.S.G.Q.H.P.H.V.K.[am]}$$$$V2.0; SMILES CCCCCCCCCCCCCCCC(=O)N[C@H](C(=O)N[C@H](C(=O)N[C@H](C(=O)N[C@@H](C)C(=O)N[C@@H](C)C(=O)N[C@@H](C)C(=O)N[C@@H](CCC(=O)O)C(=O)N[C@@H](CCC(=O)O)C(=O)N[C@@H](CCC(=O)O)C(=O)NCC(=O)N[C@@H](CO)C(=O)NCC(=O)N[C@@H](CCC(N)=O)C(=O)N[C@@H](Cc1c[nH]cn1)C(=O)N1CCC[C@H]1C(=O)N[C@@H](Cc1c[nH]cn1)C(=O)N[C@H](C(=O)N[C@@H](CCCCN)C(N)=O)C(C)C)C(C)C)C(C)C)C(C)C) [VCAMb-scr PA]”?
A: zeta potential [2]: 6.313±0.8632 mV; association with VCAM-1 protein in BLI [3]: negligible binding; coating behavior on hTreg cells ([6]; physiological buffer): the majority of the cells were not coated by the fibers

Q: Which “coverage of the cell surface by nanofibers” value [8] does the source give for “C16-V4A2E3 (SEQ ID NO: 12) (VVVVAAEEE; HELM PEPTIDE1{[CCCCCCCCCCCCCCCC(=O)[*:2]].V.V.V.V.A.A.E.E.E.[am]}$$$$V2.0; SMILES CCCCCCCCCCCCCCCC(=O)N[C@H](C(=O)N[C@H](C(=O)N[C@H](C(=O)N[C@H](C(=O)N[C@@H](C)C(=O)N[C@@H](C)C(=O)N[C@@H](CCC(=O)O)C(=O)N[C@@H](CCC(=O)O)C(=O)N[C@@H](CCC(=O)O)C(N)=O)C(C)C)C(C)C)C(C)C)C(C)C) [backbone PA candidate with V4A2 β-sheet region]” here?
A: only could partially cover the cell surface

Q: Which Kd [9] does the source give for VHPKQHR [VHPKQHR (SEQ ID NO: 11)] here?
A: 0.0396 ± 0.00178 µM
